Source: ChEMBL document CHEMBL1201862, “PubChem BioAssay data set” (2004)
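1) Cells in 96-well plates. 2) Compound, 48 h, 5 concentrations. 3) Linear interpolation between surrounding doses. 4) Unreached endpoint = highest concentration. GI50 is the concentration that inhibits growth by half.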 Calls of active or inactive are those of the source. Rule as the data show it: active = GI50 up to about 1.1 µM and inactive = higher. Where a SMILES comes first, the peptide text is derived from it. [ ]: non-standard residue; d: D form. The star is where a group is joined. Phe(4-NO2) = N[CH](Cc1ccc([N+](=O)[O-])cc1)C(=O)O; Boc = CC(C)(C)OC(=O)*

How the values were obtained:
Assay in all cases: NCI anticancer screen, dose series, 48 h
HCT-116 = system: HCT-116
ACHN = system: ACHN
RXF 393 = system: RXF 393
BT-549 = system: BT-549
NCI-H460 = system: NCI-H460
A498 = system: A498
MOLT-4 = system: MOLT-4
OVCAR-4 = system: OVCAR-4
SK-MEL-5 = system: SK-MEL-5
NCI/ADR-RES = system: NCI/ADR-RES
M14 = system: M14
SK-MEL-2 = system: SK-MEL-2
PC-3 = system: PC-3
RPMI-8226 = system: RPMI-8226
NCI-H522 = system: NCI-H522
UACC-257 = system: UACC-257
OVCAR-5 = system: OVCAR-5
SNB-75 = system: SNB-75
HOP-92 = system: HOP-92

Row | SMILES | GI50 (HCT-116) | GI50 (ACHN) | GI50 (RXF 393) | GI50 (BT-549) | GI50 (NCI-H460) | GI50 (A498) | GI50 (MOLT-4) | GI50 (OVCAR-4) | GI50 (SK-MEL-5) | GI50 (NCI/ADR-RES) | GI50 (M14) | GI50 (SK-MEL-2) | GI50 (PC-3) | GI50 (RPMI-8226) | GI50 (NCI-H522) | GI50 (UACC-257) | GI50 (OVCAR-5) | GI50 (SNB-75) | GI50 (HOP-92)
1 | COc1cc(C2C3=C(COC3=O)Oc3cc4c(cc32)OCO4)cc(OC)c1OC(C)=O (stereo not given) | 0.0207 µM (active) | < 0.01 µM (active) | < 0.01 µM (active) | 0.0255 µM (active) | 0.0212 µM (active) | 0.0116 µM (active) | 0.0612 µM (active) | 29.6 µM (inactive) | < 0.01 µM (active) | < 0.01 µM (active) | 0.0216 µM (active) | 37 µM (inactive) | < 0.01 µM (active) | 0.0318 µM (active) | < 0.01 µM (active) | – | – | – | –
2 | O=C(C(Cl)Cl)N(O)c1ccccc1OCc1ccccc1 | 63.8 µM (inactive) | 32.8 µM (inactive) | 86.3 µM (inactive) | 0.0395 µM (active) | > 100 µM (inactive) | – | 41.6 µM (inactive) | 26.6 µM (inactive) | – | 22.8 µM (inactive) | > 100 µM (inactive) | 80 µM (inactive) | 27.8 µM (inactive) | 34.2 µM (inactive) | 25.6 µM (inactive) | 13.7 µM (inactive) | > 100 µM (inactive) | 29.4 µM (inactive) | –
3 | CC[C@H]1OC([C@H](O)C/C=C\C#C[Si](C)(C)C)C/C=C\C[C@H]1O[Si](C)(C)C(C)(C)C (stereo not given in full) | > 100 µM (inactive) | > 100 µM (inactive) | > 100 µM (inactive) | > 100 µM (inactive) | > 100 µM (inactive) | > 100 µM (inactive) | > 100 µM (inactive) | > 100 µM (inactive) | > 100 µM (inactive) | > 100 µM (inactive) | > 100 µM (inactive) | > 100 µM (inactive) | > 100 µM (inactive) | 37.8 µM (inactive) | 40.9 µM (inactive) | – | > 100 µM (inactive) | > 100 µM (inactive) | –
4 | c1ccc2sc(C3(N4CCCCC4)CCCC3)cc2c1 | 5.94 µM (inactive) | 8.65 µM (inactive) | 14.1 µM (inactive) | 12.6 µM (inactive) | 5.93 µM (inactive) | 12.7 µM (inactive) | 3.52 µM (inactive) | 9.02 µM (inactive) | 10.9 µM (inactive) | 6.24 µM (inactive) | 15.1 µM (inactive) | – | – | 2.38 µM (inactive) | 11.4 µM (inactive) | 14.6 µM (inactive) | 11 µM (inactive) | 15.9 µM (inactive) | 11.2 µM (inactive)
5 | Nc1ccc(SC23CC4CC(CC(C4)C2)C3)cc1 | > 100 µM (inactive) | > 100 µM (inactive) | 27.5 µM (inactive) | > 100 µM (inactive) | > 100 µM (inactive) | > 100 µM (inactive) | – | – | > 100 µM (inactive) | > 100 µM (inactive) | > 100 µM (inactive) | > 100 µM (inactive) | > 100 µM (inactive) | > 100 µM (inactive) | > 100 µM (inactive) | > 100 µM (inactive) | > 100 µM (inactive) | – | –
6 | O=c1c2ccccc2[nH]c2c(Cl)cc(Cl)c(NC3CCCCC3)c12 | 38.5 µM (inactive) | 15.6 µM (inactive) | – | 27.5 µM (inactive) | – | 19.4 µM (inactive) | 23 µM (inactive) | 41.2 µM (inactive) | 36.3 µM (inactive) | 18.5 µM (inactive) | 18.6 µM (inactive) | 16.8 µM (inactive) | 22.8 µM (inactive) | 28.3 µM (inactive) | 20.1 µM (inactive) | 23.6 µM (inactive) | 20.1 µM (inactive) | 27.2 µM (inactive) | –
7 | O=C(O)C(NCc1ccccc1)C(NCc1ccccc1)C(=O)O (stereo not given) | > 100 µM (inactive) | > 100 µM (inactive) | – | > 100 µM (inactive) | > 100 µM (inactive) | > 100 µM (inactive) | > 100 µM (inactive) | > 100 µM (inactive) | > 100 µM (inactive) | > 100 µM (inactive) | > 100 µM (inactive) | > 100 µM (inactive) | – | > 100 µM (inactive) | > 100 µM (inactive) | > 100 µM (inactive) | – | > 100 µM (inactive) | > 100 µM (inactive)
8 | C#CCC(O)c1ccc(OC)c(OCc2ccccc2)c1 (stereo not given) | > 100 µM (inactive) | > 100 µM (inactive) | > 100 µM (inactive) | – | > 100 µM (inactive) | > 100 µM (inactive) | 23.6 µM (inactive) | > 100 µM (inactive) | 46.9 µM (inactive) | 82.2 µM (inactive) | > 100 µM (inactive) | > 100 µM (inactive) | > 100 µM (inactive) | > 100 µM (inactive) | > 100 µM (inactive) | 52.1 µM (inactive) | > 100 µM (inactive) | 27 µM (inactive) | > 100 µM (inactive)
9 | CSC1=Nc2ccccc2-c2nc(-c3ccccc3)cc(-c3ccccc3)c2C1 | 5.16 µM (inactive) | 12.4 µM (inactive) | 6.5 µM (inactive) | 39.7 µM (inactive) | 5.12 µM (inactive) | 9.93 µM (inactive) | > 100 µM (inactive) | 8.93 µM (inactive) | 16.6 µM (inactive) | 19.7 µM (inactive) | 13.9 µM (inactive) | – | 21.4 µM (inactive) | > 100 µM (inactive) | 4.7 µM (inactive) | 28.1 µM (inactive) | 33 µM (inactive) | 4.26 µM (inactive) | –
10 | COC(=O)C1CC2CCC1(O[Si](C(C)C)(C(C)C)C(C)C)C(O)C2 (stereo not given) | 18.2 µM (inactive) | 22.8 µM (inactive) | 15 µM (inactive) | 26.9 µM (inactive) | 33.7 µM (inactive) | 96.6 µM (inactive) | 10.9 µM (inactive) | 28.6 µM (inactive) | 23.1 µM (inactive) | 31.8 µM (inactive) | 17.3 µM (inactive) | 15.1 µM (inactive) | 20.7 µM (inactive) | 17.5 µM (inactive) | 21.8 µM (inactive) | – | 14.2 µM (inactive) | 21.9 µM (inactive) | –
11 | Cn1c2ccccc2c(=O)c2cccc(C(=O)NC(CS)C(=O)O)c21 (stereo not given) | 68.9 µM (inactive) | > 100 µM (inactive) | – | > 100 µM (inactive) | > 100 µM (inactive) | > 100 µM (inactive) | 63.4 µM (inactive) | > 100 µM (inactive) | > 100 µM (inactive) | 23.6 µM (inactive) | > 100 µM (inactive) | > 100 µM (inactive) | > 100 µM (inactive) | 26.5 µM (inactive) | – | > 100 µM (inactive) | > 100 µM (inactive) | 72.4 µM (inactive) | –
12 | COc1cccc(/C(CC(O)(C(F)(F)F)C(F)(F)F)=N\N(C)C)c1 | > 100 µM (inactive) | > 100 µM (inactive) | > 100 µM (inactive) | – | > 100 µM (inactive) | > 100 µM (inactive) | > 100 µM (inactive) | > 100 µM (inactive) | > 100 µM (inactive) | > 100 µM (inactive) | > 100 µM (inactive) | > 100 µM (inactive) | > 100 µM (inactive) | > 100 µM (inactive) | > 100 µM (inactive) | – | > 100 µM (inactive) | > 100 µM (inactive) | > 100 µM (inactive)
13 | Oc1ccc(-c2nc3cc(C(F)(F)F)ccc3n2CC2CCCN3CCCCC23)cc1 (stereo not given) | 15.7 µM (inactive) | 15 µM (inactive) | 15.5 µM (inactive) | – | 15.1 µM (inactive) | 14.9 µM (inactive) | 15 µM (inactive) | 15.1 µM (inactive) | 14.1 µM (inactive) | 16.5 µM (inactive) | 16.3 µM (inactive) | 14.7 µM (inactive) | 14.1 µM (inactive) | 15.6 µM (inactive) | 15.4 µM (inactive) | 16.3 µM (inactive) | 13.8 µM (inactive) | 14.9 µM (inactive) | 14.9 µM (inactive)
14 | Cc1ccc(S(=O)(=O)N2CCCC2C(=O)O[C@H]2CC[C@H]3CC=C[C@H]32)cc1 (stereo not given in full) | 19.1 µM (inactive) | 18.7 µM (inactive) | – | 47.4 µM (inactive) | 27 µM (inactive) | 23.8 µM (inactive) | 7.89 µM (inactive) | > 55.8 µM (inactive) | 19.1 µM (inactive) | 24.5 µM (inactive) | 38.7 µM (inactive) | > 10 µM (inactive) | 25 µM (inactive) | 17.1 µM (inactive) | > 10 µM (inactive) | 23.8 µM (inactive) | > 100 µM (inactive) | > 74.6 µM (inactive) | –
15 | O=C(NNCc1ccccc1O)c1ccccc1O | 3.1 µM (inactive) | 5.12 µM (inactive) | 25.2 µM (inactive) | – | – | 31.4 µM (inactive) | 1.75 µM (inactive) | 26 µM (inactive) | 3.06 µM (inactive) | 8.85 µM (inactive) | 9.16 µM (inactive) | 4.65 µM (inactive) | 24.9 µM (inactive) | 3.27 µM (inactive) | 2.28 µM (inactive) | 29.2 µM (inactive) | 3.59 µM (inactive) | 21.9 µM (inactive) | 33 µM (inactive)
16 | CCOC(=O)CCC(NC(=O)C(Cc1ccc([N+](=O)[O-])cc1)NC(=O)OC(C)(C)C)C(=O)NC(CCC(=O)OCC)C(=O)OCC (stereo not given) (Boc-[Phe(4-NO2)]-Glu(OEt)-Glu(OEt)-OEt; configuration not given here) | 18.3 µM (inactive) | 17.4 µM (inactive) | 16.6 µM (inactive) | 22.2 µM (inactive) | 23.4 µM (inactive) | 19.5 µM (inactive) | 2.73 µM (inactive) | – | 17.4 µM (inactive) | – | 16.8 µM (inactive) | 13.2 µM (inactive) | 19.7 µM (inactive) | 18.1 µM (inactive) | – | > 10 µM (inactive) | 20.7 µM (inactive) | 15.6 µM (inactive) | 15.8 µM (inactive)
